The numbers were not newly measured in patent US6858221B2, “Intravascular delivery of mycophenolic acid” (Avantec Vascular Corporation, priority 2000, dated 2005), which cites them from elsewhere.

For orientation: IC50 means the concentration needed to halve the response being measured.

For the data set, the system named is Human SMC. As to conditions: dose range 0.1 nM-1 μM, Mohacsi et al. 1997.

As to `CO[C@H]1C[C@@H]2CC[C@@H](C)[C@@](O)(O2)C(=O)C(=O)N2CCCC[C@H]2C(=O)O[C@H]([C@H](C)C[C@@H]2CC[C@@H](O)[C@H](OC)C2)CC(=O)[C@H](C)/C=C(\C)[C@@H](O)[C@@H](OC)C(=O)[C@H](C)C[C@H](C)/C=C/C=C/C=C/1C` [Rapamycin, rapamycin], the IC50 is 1 nM.
